Measured values from patent publication US12157746B2, “Tetrahydro-1H-pyrazino[2,1-a]isoindolylquinoline compounds for the treatment of autoimmune disease” (F. HOFFMANN-LA ROCHE AG, priority 2018, dated 2024).

molecular target: T1, human TLR7 (Homo sapiens, UniProt Q9NYK1); experiment: HEK293-Blue-hTLR-7 cells assay; assay type: cell-based; conditions: HEK293-Blue-hTLR7 cells, R848 stimulation, 20 hrs, SEAP reporter; read-out: HEK/hTLR7 IC50
T1 sequence (Q9NYK1 27-1049): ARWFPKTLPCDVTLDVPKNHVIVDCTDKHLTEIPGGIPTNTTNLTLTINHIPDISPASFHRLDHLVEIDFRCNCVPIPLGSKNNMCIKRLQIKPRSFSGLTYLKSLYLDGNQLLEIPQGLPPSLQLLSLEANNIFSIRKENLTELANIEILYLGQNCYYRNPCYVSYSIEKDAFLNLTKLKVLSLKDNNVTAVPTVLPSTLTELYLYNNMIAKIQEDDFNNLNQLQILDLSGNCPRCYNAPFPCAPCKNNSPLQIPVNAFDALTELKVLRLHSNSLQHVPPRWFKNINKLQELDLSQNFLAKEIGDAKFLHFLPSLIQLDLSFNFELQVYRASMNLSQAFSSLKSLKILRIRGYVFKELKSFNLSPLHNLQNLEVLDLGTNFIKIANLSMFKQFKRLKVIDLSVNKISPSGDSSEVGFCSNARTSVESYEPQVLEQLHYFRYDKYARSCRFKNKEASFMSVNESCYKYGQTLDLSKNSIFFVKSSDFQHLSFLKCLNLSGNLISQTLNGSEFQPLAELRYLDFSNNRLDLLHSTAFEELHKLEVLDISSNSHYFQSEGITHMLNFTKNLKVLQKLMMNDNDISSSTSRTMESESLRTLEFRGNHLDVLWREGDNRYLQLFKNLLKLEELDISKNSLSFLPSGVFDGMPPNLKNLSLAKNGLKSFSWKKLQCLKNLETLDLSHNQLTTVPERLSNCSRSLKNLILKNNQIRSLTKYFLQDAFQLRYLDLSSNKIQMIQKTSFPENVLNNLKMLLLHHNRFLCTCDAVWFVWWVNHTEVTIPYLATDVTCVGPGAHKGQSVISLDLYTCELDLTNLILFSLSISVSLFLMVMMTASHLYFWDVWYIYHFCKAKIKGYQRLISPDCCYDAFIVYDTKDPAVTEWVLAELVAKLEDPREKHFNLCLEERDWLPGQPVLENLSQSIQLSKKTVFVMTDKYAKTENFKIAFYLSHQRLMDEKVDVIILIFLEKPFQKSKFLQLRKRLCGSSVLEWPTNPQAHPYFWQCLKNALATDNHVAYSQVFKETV
Source text: HEK293-Blue-hTLR-7 Cells Assay:
A stable HEK293-Blue-hTLR-7 cell line was purchased from InvivoGen (Cat. #: hkb-htlr7, San Diego, California, USA). These cells were originally designed for studying the stimulation of human TLR7 by monitoring the activation of NF-κB. A SEAP (secreted embryonic alkaline phosphatase) reporter gene was placed under the control of the IFN-β minimal promoter fused to five NF-κB and AP-1-binding sites. The SEAP was induced by activating NF-κB and AP-1 via stimulating HEK-Blue hTLR7 cells with TLR7 ligands. Therefore the reporter expression was declined by TLR7 antagonist under the stimulation of a ligand, such as R848 (Resiquimod), for incubation of 20 hrs. The cell culture supernatant SEAP reporter activity was determined using QUANTI-Blue™ kit (Cat. #: rep-qb1, Invivogen, San Diego, Ca. USA) at a wavelength of 640 nm, a detection medium that turns purple or blue in the presence of alkaline phosphatase.
HEK293-Blue-hTLR7 cells were incubated at a density of 250,000˜450,000 cells/mL in a volume of 170 μL in a 96-well plate in Dulbecco's Modified Eagle's medium (DMEM) containing 4.5 g/L glucose, 50 U/mL penicillin, […], […], 2 mM L-glutamine, 10% (v/v) heat-inactivated fetal bovine serum with addition of 20 μL test compound 1n a serial dilution in the presence of final DMSO at 1% and 10 μL of 20 uM R848 in above DMEM, perform incubation under 37° C. in a CO2 incubator for 20 hrs. Then 20 μL of the supernatant from each well was incubated with 180 μL Quanti-blue substrate solution at 37° C. for 2 hrs and the absorbance was read at 620-655 nm using a spectrophotometer. The signaling pathway that TLR7 activation leads to downstream NF-κB activation has been widely accepted, and therefore similar reporter assay was modified for evaluating TLR7 antagonist.

| Structure (SMILES) | IC50 [nM] |
| --- | --- |
| [2H]c1ccc2c(N3C[C@@H](C)N4Cc5cc(N6CC(C)(N)C6)ccc5[C@H]4C3)ccc(C#N)c2n1 [Example 92, 5-[(4R,10bS)-8-(3-amino-3-methyl-azetidin-1-yl)-4-methyl-3,4,6,10b-tetrahydro-1H-pyrazino[2,1-a]isoindol-2-yl]-2-deuterio-quinoline-8-carbonitrile] | 3.1 |
| COC12CNCC1CN(c1ccc3c(c1)CN1[C@H](C)CN(c4ccc(C#N)c5ncccc45)C[C@H]31)C2 (stereo partly drawn) [Example 41, 5-[(4R,10bS)-8-(3a-methoxy-1,2,3,4,6,6a-hexahydropyrrolo[3,4-c]pyrrol-5-yl)-4-methyl-3,4,6,10b-tetrahydro-1H-pyrazino[2,1-a]isoindol-2-yl]quinoline-8-carbonitrile] | < 3.2 |
| C[C@@H]1CN(c2ccc(C#N)c3ncccc23)C[C@@H]2c3ccc(C4CCNCC4)cc3CN12 [Example 9, 5-[(4R,10bS)-4-methyl-8-(4-piperidyl)-3,4,6,10b-tetrahydro-1H-pyrazino[2,1-a]isoindol-2-yl]quinoline-8-carbonitrile] | < 3.2 |
| CO[C@@H]1CN(c2ccc3c(c2)CN2[C@H](C)CN(c4ccc(C#N)n5nccc45)C[C@H]32)C[C@H]1N [Example 94, 4-[(4R,10bS)-8-[(3R,4R)-3-amino-4-methoxy-pyrrolidin-1-yl]-4-methyl-3,4,6,10b-tetrahydro-1H-pyrazino[2,1-a]isoindol-2-yl]pyrazolo[1,5-a]pyridine-7-carbonitrile] | 13.7 |
| CO[C@H]1CN(c2ccc3c(c2)CN2C3CN(c3ccc(C#N)c4ncccc34)C[C@H]2C)C[C@@H]1N (single isomer, unassigned) [Example 16A] | 5.3 |
| C[C@@H]1CN(c2ccc(C#N)c3ncccc23)C[C@@H]2c3ccc(N4CCOC5CNCC54)cc3CN12 (stereo partly drawn) [Example 52, 5-[(4R,10bS)-8-(3,4a,5,6,7,7a-hexahydro-2H-pyrrolo[3,4-b][1,4]oxazin-4-yl)-4-methyl-3,4,6,10b-tetrahydro-1H-pyrazino[2,1-a]isoindol-2-yl]quinoline-8-carbonitrile] | 8.5 |
| C[C@@H]1CN(c2ccc(C#N)n3nccc23)C[C@@H]2c3ccc(N4C[C@@H](N)[C@](C)(O)C4)cc3CN12 [Example 108, 4-[(4R,10bS)-8-[(3R,4R)-4-amino-3-hydroxy-3-methyl-pyrrolidin-1-yl]-4-methyl-3,4,6,10b-tetrahydro-1H-pyrazino[2,1-a]isoindol-2-yl]pyrazolo[1,5-a]pyridine-7-carbonitrile] | 17.5 |
| C[C@@H]1CN(c2ccc(C#N)n3nccc23)C[C@@H]2c3ccc(N4CC5CNCC(C4)O5)cc3CN12 [Example 107, 4-[(4R,10bS)-4-methyl-8-(9-oxa-3,7-diazabicyclo[3.3.1]nonan-3-yl)-3,4,6,10b-tetrahydro-1H-pyrazino[2,1-a]isoindol-2-yl]pyrazolo[1,5-a]pyridine-7-carbonitrile] | 14.5 |
| C[C@@H]1CN(c2ccc(C#N)c3ncccc23)C[C@@H]2c3ccc(N4C[C@H](N)[C@@](C)(O)C4)cc3CN12 [Example 45B, 5-[(4R,10bS)-8-[(3S,4S)-4-amino-3-hydroxy-3-methyl-pyrrolidin-1-yl]-4-methyl-3,4,6,10b-tetrahydro-1H-pyrazino[2,1-a]isoindol-2-yl]quinoline-8-carbonitrile] | 3.3 |
| C[C@@H]1CN(c2ccc(C#N)n3nccc23)C[C@@H]2c3ccc(N4CC[C@@](C)(N)C4)cc3CN12 [Example 103, 4-[(4R,10bS)-8-[(3R)-3-amino-3-methyl-pyrrolidin-1-yl]-4-methyl-3,4,6,10b-tetrahydro-1H-pyrazino[2,1-a]isoindol-2-yl]pyrazolo[1,5-a]pyridine-7-carbonitrile] | 25.8 |
| C[C@@H]1CN(c2ccc(C#N)c3ncccc23)C[C@@H]2c3ccc(N4C[C@@H](F)[C@@H](N)C4)cc3CN12 [Example 46, 5-[(4R,10bS)-8-[(3S,4R)-3-amino-4-fluoro-pyrrolidin-1-yl]-4-methyl-3,4,6,10b-tetrahydro-1H-pyrazino[2,1-a]isoindol-2-yl]quinoline-8-carbonitrile] | 15.6 |
| C[C@@H]1CN(c2ccc(C#N)c3ncccc23)C[C@@H]2c3ccc(N4CCNC[C@@H](O)C4)cc3CN12 [Example 53B, 5-[(4R,10bS)-8-[(6R)-6-hydroxy-1,4-diazepan-1-yl]-4-methyl-3,4,6,10b-tetrahydro-1H-pyrazino[2,1-a]isoindol-2-yl]quinoline-8-carbonitrile] | 8.9 |
| C[C@@H]1CN(c2ccc(C#N)c3ncccc23)C[C@@H]2c3ccc(N[C@@H]4CNC[C@H]4F)cc3CN12 [Example 33, 5-[(4R,10bS)-8-[[(3R,4R)-4-fluoropyrrolidin-3-yl]amino]-4-methyl-3,4,6,10b-tetrahydro-1H-pyrazino[2,1-a]isoindol-2-yl]quinoline-8-carbonitrile] | < 3.2 |
| CO[C@H]1CN(c2ccc3c(c2)CN2[C@H](C)CN(c4ccc(C#N)c5ncccc45)C[C@H]32)C[C@@H]1N (relative stereo) [Example 16, 5-[(4R,10bS)-8-[trans-3-amino-4-methoxy-pyrrolidin-1-yl]-4-methyl-3,4,6,10b-tetrahydro-1H-pyrazino[2,1-a]isoindol-2-yl]quinoline-8-carbonitrile] | 6.9 |
| C[C@@H]1CN(c2ccc(C#N)c3ncccc23)C[C@@H]2c3ccc(N4C[C@@H](N)[C@H](F)C4)cc3CN12 [Example 48, 5-[(4R,10bS)-8-[(3R,4R)-3-amino-4-fluoro-pyrrolidin-1-yl]-4-methyl-3,4,6,10b-tetrahydro-1H-pyrazino[2,1-a]isoindol-2-yl]quinoline-8-carbonitrile] | 5.8 |
| CO[C@@H]1CN(c2ccc3c(c2)CN2C3CN(c3ccc(C#N)c4ncccc34)C[C@H]2C)C[C@@H]1N (relative stereo) [Example 17, 5-[(4R,10bS)-8-[cis-3-amino-4-methoxy-pyrrolidin-1-yl]-4-methyl-3,4,6,10b-tetrahydro-1H-pyrazino[2,1-a]isoindol-2-yl]quinoline-8-carbonitrile] | < 3.2 |
| C[C@@H]1CN(c2ccc(C#N)c3ncccc23)C[C@@H]2c3ccc(N4CC5CNCC(C4)O5)cc3CN12 [Example 14, 5-[(4R,10bS)-4-methyl-8-(9-oxa-3,7-diazabicyclo[3.3.1]nonan-3-yl)-3,4,6,10b-tetrahydro-1H-pyrazino[2,1-a]isoindol-2-yl]quinoline-8-carbonitrile] | 4.5 |
| C[C@@H]1CN(c2ccc(C#N)c3ncccc23)C[C@@H]2c3cccc(N4CCNCC4)c3CN12 [Example 8, 5-[(4R,10bS)-4-methyl-7-piperazin-1-yl-3,4,6,10b-tetrahydro-1H-pyrazino[2,1-a]isoindol-2-yl]quinoline-8-carbonitrile] | < 3.2 |
| C[C@@H]1CN(c2ccc(C#N)c3ncccc23)C[C@@H]2c3ccc(N4C[C@H](N)[C@@H](F)C4)cc3CN12 [Example 49, 5-[(4R,10bS)-8-[(3S,4S)-3-amino-4-fluoro-pyrrolidin-1-yl]-4-methyl-3,4,6,10b-tetrahydro-1H-pyrazino[2,1-a]isoindol-2-yl]quinoline-8-carbonitrile] | 4.5 |
| [2H]c1ccc2c(N3C[C@@H](C)N4Cc5cc(N6CC7CNCC(C6)O7)ccc5[C@H]4C3)ccc(C#N)c2n1 [Example 93, 5-[(4R,10bS)-4-methyl-8-(9-oxa-3,7-diazabicyclo[3.3.1]nonan-3-yl)-3,4,6,10b-tetrahydro-1H-pyrazino[2,1-a]isoindol-2-yl]-2-deuterio-quinoline-8-carbonitrile] | 3.8 |
